Source: paper PMC9298260, “An Immunomodulatory Peptide Dendrimer Inspired from Glatiramer Acetate” (Angewandte Chemie (International Ed. in English), 2021)

Columns and labels:
IL-1β = IL-1β time profile in monocytes, RT-qPCR; format: cell-based, human; conditions: 50 µg/mL, inactivated and LPS (100 ng/mL) activated
Method: For closer characterization, we selected dendrimer 1 due to its smaller size and the presence of a cysteine residue that could be used for labelling. […] Furthermore, dendrimer 1 induced the release of IL‐1Ra both with and without LPS activation, but in the latter case the effect was detected only after 18 h incubation (Figure S5e/f).
Enriched monocytes after Percoll centrifugation (4×10^6 cells/3 mL well; 6-well plates) were preincubated for 1 h with or without compounds in RPMI-1640 medium supplemented with 10% heat-inactivated FBS, 50 μg/mL streptomycin, 50 U/mL penicillin, 2 mM L-glutamine, and then incubated for the indicated duration. After the incubation cells were collected, total RNA was extracted, reverse transcribed and analyzed by SYBR Green Master Mix. As a housekeeping gene was used Actin 5'-CAC TGG GGG CTA CTG GAC-3', 3'-AACATGGTGTTGGCAGAAACT-5', IL-1Ra 5'-TTCCTGTTCCATTCAGAGACG -3', 3'-CTTCTGGTTAACATCCCAGATTC -5'.
Figure S5. Dendrimer 1 affected mRNA levels in both LPS -activated and resting monocytes.
Monocytes 4 ×10^6 cells/3 mL in 6 well plates were incubated for indicated time with 50 µg/mL of 1 or without any treatment (NT) (a, c, e); or preincubated for 1 h with 100 ng/mL of LPS, and then with 50 µg/mL of 1 (b, d, f) or without any treatment (NT). […]

[1] = tested on: IL-1Ra release from human primary monocytes; experiment: IL-1Ra release from human primary monocytes, immunoassay (ELISA) of supernatants; format: cell-based; conditions: primary human monocytes of healthy donors, 25 and 50 μg mL^−1, 48 h
Method: (§1) As an activity screen we focused on interleukin‐1 receptor antagonist (IL‐1Ra), a cytokine released by circulating antigen presenting cells (APC) in response to GA.[15, 35] […] To test our dendrimers, we quantified by immunoassay the release of IL‐1Ra from human primary monocytes of healthy donors, an easily accessible type of APC, stimulated or not by addition of lipopolysaccharide (LPS), which in our hands provided a reliable read‐out.[15] We tested at defined weight/volume (25 and 50 μg mL^−1 compound as typically reported for GA)[15, 35] to account for a possible activity increase with MW as often observed with dendrimers when using molarity. In the initial screen the levels of secreted IL‐1Ra remained below 1 ng mL^−1 for all the smaller test compounds as well as with the linear peptide analogs of GA.
(§2) Figure 2 Cytokine level of IL‐1Ra in supernatants of primary human monocytes of healthy donors treated with peptide dendrimers, evaluated by ELISA (bars, left vertical axis) and mRNA levels (▴, right vertical axis). […] For mRNA levels evaluation, 2×10^6 cells 3 mL^−1 in 6 well plates were incubated with 50 μg mL^−1 dendrimer or GA for 18 h. […]
(§3) Enzyme-linked immunosorbent assay (ELISA)
(§4) Monocytes (5×10^4 cells/200 μL well; 96-well plates) were preincubated for 1 h with or without compounds in RPMI-1640 medium supplemented with 10% heat-inactivated FBS, 50 μg/mL streptomycin, 50 U/mL penicillin, 2 mM L-glutamine, and 5 μg/mL polymyxin B sulfate and then cultured for 48 h in the presence or absence of LPS (100 ng/mL) (2). The production of IL-1Ra was measured in culture supernatants by commercially available enzyme immunoassay according to manufacture protocol.
(§5) Figure S2. Cytokine level of IL-1Ra in supernatants of monocytes for active dendrimers and analogues evaluated by ELISA assay on primary human monocytes of healthy donors. 5×10^4 cells/200 µL in 96 well plates, were incubated with dendrimers or GA as a control for 48 h in presence or absence of LPS (100 ng/mL), in a range of concentrations (50-25 µg/mL) (mean ± SD, n = 2 different experiments). The results are present as the difference between each sample and the non-treated sample to take into account the difference between base line for each donor.
(§6) Figure S3. Cytokine level of IL-1Ra in supernatants of monocytes for active dendrimers and […]
(§7) presence or absence of LPS (100 ng/mL), in a range of concentrations (100-12.5 µg/mL) (mean ± SD, n = 3 different experiments). […]

[2] = Circular dichroism spectroscopy; format: physicochemical; conditions: 100 μg/mL, 8 mM phosphate buffer pH 7.2/7.4
Method: In terms of stereochemistry, activity was lost with D‐enantiomers D‐1 and D‐4, similar to the inactivity reported for D‐enantiomeric GA.[2]
Circular dichroism (CD) experiments were measured on a Jasco J-715 Spectropolarimeter. All the experiments were performed using Hellma Suprasil 110-QS 0.1 cm cuvettes. For each peptide, the measurements were performed in phosphate buffer (PB, pH=7.2, 8 mM) and in the presence of 5 mM dodecylphosphocholine. The concentration of the peptides was 100.0 μg/mL and each sample was measured using one accumulation. The scan rate was 10 nm/min, pitch 0.5 nm, response 16 sec and bandwidth 1.0 nm. The nitrogen flow was kept >8.5 L/min. After each measurement, the cuvettes were washed successively with 1 M HCl, milli-Q H2O and PB buffer. The baseline was recorded under the same conditions and subtracted manually.
Figure S12. Circular dichroism spectra of GA, 1 and 4 (100 μg/mL) in 8 mM phosphate buffer at pH 7.4 (a) or in presence of 5 mM dodecylphosphocholine. Percentage of α-helix and β- sheet was processed by Dichroweb using the CONTIN analysis program and reference set 3.
(1 picture or pasted object on this page, not shown here)

[3] = tested on: IL-1Ra release from human primary monocytes; experiment: IL-1Ra release from human primary monocytes, immunoassay (ELISA) of supernatants; format: cell-based; set-up: key: +: Ability to induce IL-1Ra on primary monocytes after 48 h of incubation; Ability to induce IL-1Ra on primary monocytes after 48 h of incubation; conditions: Table S1 initial library; primary monocytes, 48 h
Method: as §1, §2, §3, §4, §5, §6, §7

(KA)8(KAK)4(KEKA)2KAKEAYCA-NH2 [compound 1, G3 peptide dendrimer]
production of IL-1β (IL-1β): significantly inhibited
IL-1Ra release activity (in words) [1]: comparable or higher than GA
conformation by CD spectra [2]: unordered conformation
Act. (ability to induce IL-1Ra) [3]: +
